# Source: patent publication US6525001B1, “Substituted pyrimidine and pyridine herbicides” (Mid-American Commercialization Corporation, priority 1997, dated 2003)
# Assays:
# Assay in all cases: Test B pre-/postemergence
# Format in all cases: in vivo
# Design in all cases: key: 0 is no effect; 10 is complete control
# [1] = system: purple nutsedge (Cyperus rotundus)
# In short: (§1)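 Seeds were planted and sprayed preemergence, while plants at 2 to 18 cm (1- to 4-leaf stage) were sprayed postemergence at the same time, with test chemical in a non-phytotoxic solvent mixture containing surfactant. After twelve to sixteen days in a greenhouse, injury was rated visually against untreated controls on a 0–10 scale.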
# [2] = system: bedstraw (Galium aparine); conditions: for Bedstraw plant response rating: Preemergence
# In short: as §1
# [3] = system: cocklebur (Xanthium strumarium); conditions: for Cocklebur plant response rating: Preemergence
# In short: as §1
# [4] = system: sugar beet (Beta vulgaris)
# In short: as §1
# corn (Zea mays) = conditions: for Corn plant response rating: Preemergence
# In short: as §1
# soybean (Glycine max) = system: soybean (Glycine max)
# In short: as §1
# [5] = system: broadleaf signalgrass (Brachiaria decumbens); conditions: for B. signalgrass plant response rating: Preemergence
# In short: as §1
# [6] = system: crabgrass (Digitaria sanguinalis); conditions: for Crabgrass plant response rating: Preemergence
# In short: as §1
# [7] = system: velvetleaf (Abutilon theophrasti)
# In short: as §1
# [8] = system: momingglory (Ipomoea hederacea)
# In short: as §1
# [9] = system: giant foxtail (Setaria faberii)
# In short: as §1
# rape (Brassica napus) = system: rape (Brassica napus)
# In short: as §1
# [10] = system: pigweed (Amaranthus retroflexus)
# In short: as §1
# [11] = system: wheat (Triticum aestivum)
# In short: as §1
# [12] = Rate 250 g/ha, Postemergence (so in the source)
# [13] = Rate 250 g/ha, Postemergence as printed in head r139 (second section for compounds 26-50)
compound,measurement,setting,value
Cc1cnc(-n2cnc(C(F)(F)F)c2)nc1Cc1cccc(C(F)(F)F)c1 [Compound 44],"Plant response rating, Nutsedge","[1]; Rate 62 g/ha, Postemergence",1
same,Nutsedge plant response rating,"[1]; Rate 62 g/ha, Preemergence",2
same,Nutsedge plant response rating,"[1]; Rate 125 g/ha, Postemergence",2
same,"Plant response rating, Nutsedge","[1]; Rate 250 g/ha, Postemergence",3
same,"Plant response rating, Bedstraw","[2]; Rate 62 g/ha, Postemergence",8
same,Bedstraw plant response rating,[2]; Rate 62 g/ha,4
same,"Plant response rating, Bedstraw","[2]; Rate 125 g/ha, Postemergence",9
same,Bedstraw plant response rating,[2]; Rate 125 g/ha,5
same,"Plant response rating, Bedstraw","[2]; Rate 250 g/ha, Postemergence",9
same,"Plant response rating, Bedstraw",[2]; [12],10
same,"Plant response rating, Cocklebur","[3]; Rate 62 g/ha, Postemergence",8
same,Cocklebur plant response rating,[3]; Rate 62 g/ha,2
same,"Plant response rating, Cocklebur","[3]; Rate 125 g/ha, Postemergence",9
same,Cocklebur plant response rating,[3]; Rate 125 g/ha,5
same,"Plant response rating, Cocklebur","[3]; Rate 250 g/ha, Postemergence",9
same,"Plant response rating, Cocklebur",[3]; [12],8
same,"Plant response rating, Sugarbeets","[4]; Rate 62 g/ha, Postemergence",10
same,Sugarbeets plant response rating,"[4]; Rate 62 g/ha, Preemergence",9
same,Sugarbeets plant response rating,"[4]; Rate 125 g/ha, Postemergence",10
same,"Plant response rating, Sugarbeets","[4]; Rate 125 g/ha, Preemergence",10
same,"Plant response rating, Sugarbeets","[4]; Rate 250 g/ha, Postemergence",10
same,"Plant response rating, Sugarbeets",[4]; [12],10
same,"Plant response rating, Corn","corn (Zea mays); Rate 62 g/ha, Postemergence",3
same,Corn plant response rating,corn (Zea mays); Rate 62 g/ha,0
same,"Plant response rating, Corn","corn (Zea mays); Rate 125 g/ha, Postemergence",3
same,Corn plant response rating,corn (Zea mays); Rate 125 g/ha,1
same,"Plant response rating, Corn","corn (Zea mays); Rate 250 g/ha, Postemergence",3
same,"Plant response rating, Corn",corn (Zea mays); [12],1
same,"Plant response rating, Soybean","soybean (Glycine max); Rate 62 g/ha, Postemergence",5
same,Soybean plant response rating,"soybean (Glycine max); Rate 62 g/ha, Preemergence",0
same,Soybean plant response rating,"soybean (Glycine max); Rate 125 g/ha, Postemergence",6
same,"Plant response rating, Soybean","soybean (Glycine max); Rate 125 g/ha, Preemergence",2
same,"Plant response rating, Soybean","soybean (Glycine max); Rate 250 g/ha, Postemergence",6
same,"Plant response rating, Soybean",soybean (Glycine max); [12],2
same,"Plant response rating, B. signalgrass","[5]; Rate 62 g/ha, Postemergence",3
same,B. signalgrass plant response rating,[5]; Rate 62 g/ha,6
same,"Plant response rating, B. signalgrass","[5]; Rate 125 g/ha, Postemergence",4
same,B. signalgrass plant response rating,[5]; Rate 125 g/ha,8
same,"Plant response rating, B. signalgrass","[5]; Rate 250 g/ha, Postemergence",5
same,"Plant response rating, B. signalgrass",[5]; [13],8
same,"Plant response rating, Crabgrass","[6]; Rate 62 g/ha, Postemergence",3
same,Crabgrass plant response rating,[6]; Rate 62 g/ha,4
same,"Plant response rating, Crabgrass","[6]; Rate 125 g/ha, Postemergence",4
same,Crabgrass plant response rating,[6]; Rate 125 g/ha,4
same,"Plant response rating, Crabgrass","[6]; Rate 250 g/ha, Postemergence",7
same,"Plant response rating, Crabgrass",[6]; [12],9
same,"Plant response rating, Velvetleaf","[7]; Rate 62 g/ha, Postemergence",8
same,Velvetleaf plant response rating,"[7]; Rate 62 g/ha, Preemergence",8
same,Velvetleaf plant response rating,"[7]; Rate 125 g/ha, Postemergence",8
same,"Plant response rating, Velvetleaf","[7]; Rate 125 g/ha, Preemergence",10
same,"Plant response rating, Velvetleaf","[7]; Rate 250 g/ha, Postemergence",9
same,"Plant response rating, Velvetleaf",[7]; [12],10
same,"Plant response rating, Morningglory","[8]; Rate 62 g/ha, Postemergence",10
same,Morningglory plant response rating,"[8]; Rate 62 g/ha, Preemergence",8
same,Morningglory plant response rating,"[8]; Rate 125 g/ha, Preemergence",9
same,"Plant response rating, Morningglory","[8]; Rate 250 g/ha, Postemergence",10
same,"Plant response rating, Morningglory",[8]; [12],10
same,"Plant response rating, Giant foxtail","[9]; Rate 62 g/ha, Postemergence",2
same,Giant foxtail plant response rating,"[9]; Rate 62 g/ha, Preemergence",4
same,Giant foxtail plant response rating,"[9]; Rate 125 g/ha, Postemergence",7
same,Giant foxtail plant response rating,"[9]; Rate 125 g/ha, Preemergence",5
same,"Plant response rating, Giant foxtail","[9]; Rate 250 g/ha, Postemergence",9
same,"Plant response rating, Giant foxtail",[9]; [12],9
same,"Plant response rating, Rape","rape (Brassica napus); Rate 62 g/ha, Postemergence",9
same,Rape plant response rating,"rape (Brassica napus); Rate 62 g/ha, Preemergence",4
same,Rape plant response rating,"rape (Brassica napus); Rate 125 g/ha, Postemergence",10
same,Rape plant response rating,"rape (Brassica napus); Rate 125 g/ha, Preemergence",8
same,"Plant response rating, Rape","rape (Brassica napus); Rate 250 g/ha, Postemergence",10
same,"Plant response rating, Rape",rape (Brassica napus); [12],10
same,"Plant response rating, Redroot pigweed","[10]; Rate 62 g/ha, Postemergence",9
same,Redroot pigweed plant response rating,"[10]; Rate 62 g/ha, Preemergence",7
same,Redroot pigweed plant response rating,"[10]; Rate 125 g/ha, Postemergence",10
same,Redroot pigweed plant response rating,"[10]; Rate 125 g/ha, Preemergence",9
same,"Plant response rating, Redroot pigweed","[10]; Rate 250 g/ha, Postemergence",10
same,"Plant response rating, Redroot pigweed",[10]; [12],10
same,Wheat plant response rating,"[11]; Rate 62 g/ha, Postemergence",3
same,Wheat plant response rating,"[11]; Rate 62 g/ha, Preemergence",0
same,Wheat plant response rating,"[11]; Rate 125 g/ha, Postemergence",3
same,"Plant response rating, Wheat","[11]; Rate 125 g/ha, Preemergence",1
same,"Plant response rating, Wheat","[11]; Rate 250 g/ha, Postemergence",3
same,"Plant response rating, Wheat",[11]; [12],3
CCc1cnc(-n2ccc(C(F)(F)F)n2)nc1Cc1cccc(C(F)(F)F)c1 [Compound 46],"Plant response rating, Nutsedge","[1]; Rate 62 g/ha, Postemergence",2
same,Nutsedge plant response rating,"[1]; Rate 125 g/ha, Preemergence",0
same,"Plant response rating, Nutsedge",[1]; [12],0
same,"Plant response rating, Bedstraw","[2]; Rate 62 g/ha, Postemergence",8
same,Bedstraw plant response rating,[2]; Rate 62 g/ha,8
same,"Plant response rating, Bedstraw","[2]; Rate 125 g/ha, Postemergence",9
same,Bedstraw plant response rating,[2]; Rate 125 g/ha,9
same,"Plant response rating, Bedstraw","[2]; Rate 250 g/ha, Postemergence",10
same,"Plant response rating, Bedstraw",[2]; [12],10
same,"Plant response rating, Cocklebur","[3]; Rate 62 g/ha, Postemergence",8
same,Cocklebur plant response rating,[3]; Rate 62 g/ha,10
same,"Plant response rating, Cocklebur","[3]; Rate 125 g/ha, Postemergence",9
same,"Plant response rating, Cocklebur","[3]; Rate 250 g/ha, Postemergence",9
same,"Plant response rating, Sugarbeets","[4]; Rate 62 g/ha, Postemergence",10
same,Sugarbeets plant response rating,"[4]; Rate 62 g/ha, Preemergence",10
same,Sugarbeets plant response rating,"[4]; Rate 125 g/ha, Postemergence",10
same,"Plant response rating, Sugarbeets","[4]; Rate 125 g/ha, Preemergence",10
same,"Plant response rating, Sugarbeets","[4]; Rate 250 g/ha, Postemergence",10
same,"Plant response rating, Sugarbeets",[4]; [12],10
same,"Plant response rating, Corn","corn (Zea mays); Rate 62 g/ha, Postemergence",2
same,Corn plant response rating,corn (Zea mays); Rate 62 g/ha,0
same,"Plant response rating, Corn","corn (Zea mays); Rate 125 g/ha, Postemergence",2
same,Corn plant response rating,corn (Zea mays); Rate 125 g/ha,1
same,"Plant response rating, Corn","corn (Zea mays); Rate 250 g/ha, Postemergence",3
same,"Plant response rating, Corn",corn (Zea mays); [12],3
same,"Plant response rating, Soybean","soybean (Glycine max); Rate 62 g/ha, Postemergence",8
same,Soybean plant response rating,"soybean (Glycine max); Rate 62 g/ha, Preemergence",1
same,Soybean plant response rating,"soybean (Glycine max); Rate 125 g/ha, Postemergence",8
same,"Plant response rating, Soybean","soybean (Glycine max); Rate 125 g/ha, Preemergence",3
same,"Plant response rating, Soybean","soybean (Glycine max); Rate 250 g/ha, Postemergence",9
same,"Plant response rating, Soybean",soybean (Glycine max); [12],7
same,"Plant response rating, B. signalgrass","[5]; Rate 62 g/ha, Postemergence",3
same,B. signalgrass plant response rating,[5]; Rate 62 g/ha,9
same,"Plant response rating, B. signalgrass","[5]; Rate 125 g/ha, Postemergence",4
same,B. signalgrass plant response rating,[5]; Rate 125 g/ha,9
same,"Plant response rating, B. signalgrass","[5]; Rate 250 g/ha, Postemergence",5
same,"Plant response rating, B. signalgrass",[5]; [13],9
same,"Plant response rating, Crabgrass","[6]; Rate 62 g/ha, Postemergence",6
same,Crabgrass plant response rating,[6]; Rate 62 g/ha,9
same,"Plant response rating, Crabgrass","[6]; Rate 125 g/ha, Postemergence",6
same,Crabgrass plant response rating,[6]; Rate 125 g/ha,9
same,"Plant response rating, Crabgrass","[6]; Rate 250 g/ha, Postemergence",8
same,"Plant response rating, Crabgrass",[6]; [12],10
same,"Plant response rating, Velvetleaf","[7]; Rate 62 g/ha, Postemergence",9
same,Velvetleaf plant response rating,"[7]; Rate 62 g/ha, Preemergence",10
same,Velvetleaf plant response rating,"[7]; Rate 125 g/ha, Postemergence",9
same,"Plant response rating, Velvetleaf","[7]; Rate 125 g/ha, Preemergence",10
same,"Plant response rating, Velvetleaf","[7]; Rate 250 g/ha, Postemergence",9
same,"Plant response rating, Velvetleaf",[7]; [12],10
same,"Plant response rating, Morningglory","[8]; Rate 62 g/ha, Postemergence",9
same,Morningglory plant response rating,"[8]; Rate 62 g/ha, Preemergence",10
same,Morningglory plant response rating,"[8]; Rate 125 g/ha, Postemergence",10
same,Morningglory plant response rating,"[8]; Rate 125 g/ha, Preemergence",10
same,"Plant response rating, Morningglory","[8]; Rate 250 g/ha, Postemergence",10
same,"Plant response rating, Morningglory",[8]; [12],10
same,"Plant response rating, Giant foxtail","[9]; Rate 62 g/ha, Postemergence",3
same,Giant foxtail plant response rating,"[9]; Rate 62 g/ha, Preemergence",9
same,Giant foxtail plant response rating,"[9]; Rate 125 g/ha, Postemergence",4
same,Giant foxtail plant response rating,"[9]; Rate 125 g/ha, Preemergence",9
same,"Plant response rating, Giant foxtail","[9]; Rate 250 g/ha, Postemergence",7
same,"Plant response rating, Giant foxtail",[9]; [12],10
same,"Plant response rating, Rape","rape (Brassica napus); Rate 62 g/ha, Postemergence",9
same,Rape plant response rating,"rape (Brassica napus); Rate 62 g/ha, Preemergence",9
same,Rape plant response rating,"rape (Brassica napus); Rate 125 g/ha, Postemergence",9
same,Rape plant response rating,"rape (Brassica napus); Rate 125 g/ha, Preemergence",9
same,"Plant response rating, Rape","rape (Brassica napus); Rate 250 g/ha, Postemergence",9
same,"Plant response rating, Rape",rape (Brassica napus); [12],10
same,"Plant response rating, Redroot pigweed","[10]; Rate 62 g/ha, Postemergence",9
same,Redroot pigweed plant response rating,"[10]; Rate 62 g/ha, Preemergence",10
same,Redroot pigweed plant response rating,"[10]; Rate 125 g/ha, Postemergence",9
same,Redroot pigweed plant response rating,"[10]; Rate 125 g/ha, Preemergence",10
same,"Plant response rating, Redroot pigweed","[10]; Rate 250 g/ha, Postemergence",10
same,"Plant response rating, Redroot pigweed",[10]; [12],10
same,Wheat plant response rating,"[11]; Rate 62 g/ha, Postemergence",3
same,Wheat plant response rating,"[11]; Rate 62 g/ha, Preemergence",1
same,Wheat plant response rating,"[11]; Rate 125 g/ha, Postemergence",3
same,"Plant response rating, Wheat","[11]; Rate 125 g/ha, Preemergence",3
same,"Plant response rating, Wheat","[11]; Rate 250 g/ha, Postemergence",4
same,"Plant response rating, Wheat",[11]; [12],5
